US6410578B1, “Benzazole compounds and their use” (Novartis Animal Health US, Inc., priority 1998, dated 2002)

Columns and labels:
[1] = test system: Boophilus microplus Biarra (larvae); experiment: Arena test for vermin-repellent substances, Example A; details: in vitro arena test, ca. 60 to 100 larvae per well; for duration of repellent/deterrent action compared with DEET: DEET as standard; for repellent/deterrent action: evaluation of video images
Procedure: (§1) This method is carried out in titre plates having 6 wells with a cross-section of 5 cm each, using a computer-supported video system. Each well of the titre plate is lined with a circular filter paper or another suitable carrier material. The substance of formula I to be tested is dissolved in methanol, acetonitrile or another suitable solvent, with ultrasound treatment and heating being employed for poorly-soluble substances. In an amount of 1 to 100 mg/cm^2, the dissolved test substance is placed in the centre of the filter paper on a quadrant or circular area of ca. 2.4 cm^2 radius. 4 of the 6 wells are filled with different test substances or with the same test substance in different dilutions (e.g. 1, 3.2, 5, 10 and 20 mg/cm^2). The 5th well is treated with DEET (N,N-diethyl-m-toluamide) as standard substance. The 6th well is filled with the pure solvent and serves as a control. 60 to 100 larvae or 25 to 50 nymphs or 10 to 25 adults of the parasite to be tested, e.g. ticks, are added to each filter paper, and the system is covered with a pane of glass and positioned under a video camera.
(§2) At intervals of 5 seconds, the video camera takes individual pictures of all 6 wells. For a qualitative evaluation, these images are observed in a time-lapse as a continuous film, optically following the movements of the parasites on the filter paper and comparing them with the movements in the control well no. 6 or with the standard in the 5th well. A qualitative observation is thus made as to whether the test parasites move evenly over the whole surface of the filter paper and ignore the test substance, or whether and over what period they avoid the treated zone, and what influence the dilution of the test substance has on the behaviour of the test parasites. In this way, neutral and repellent substances are determined. At the same time, the duration of activity of the test substance is determined and compared with that of the standard. By plotting all the images for each individual well over one another, different areas of density are obtained. This represents the frequency at which the parasites visit certain places. This frequency is evaluated statistically and thus quantitatively by the Willcoxon method in a comparison with the control and with the standard.
In vitro Test; Test Animal: Boophilus microplus Biarra (Larvae)
The test is carried out as described above, with ca. 60 to 100 larvae being added per well.

[2] = test system: Amblyomma hebraeum or variegatum (nymphs); experiment: Arena test for vermin-repellent substances, Example B; details: in vitro arena test, ca. 25 nymphs per well; for duration of repellent/deterrent action compared with DEET: DEET as standard; for repellent/deterrent action: evaluation of video images
Procedure: as §1, §2
In vitro Test; Test Animal: Amblyomma hebraeum or variegatum (Nymphs)
The test is carried out as described above, with ca. 25 nymphs being added per well.

[3] = test system: Rhipicephalus sanguineus (nymphs); experiment: Arena test for vermin-repellent substances, Example C; details: in vitro arena test, ca. 40 to 50 nymphs; for duration of repellent/deterrent action compared with DEET: DEET as standard; for repellent/deterrent action: evaluation of video images
Procedure: as §1, §2
In vitro Test; Test Animal: Rhipicephalus sanguineus (Nymphs)
The test is carried out analogously to example B, with ca. 40 to 50 nymphs.

Row | Structure (SMILES) | duration of repellent/deterrent action compared with DEET [1] | repellent/deterrent action [1] | duration of repellent/deterrent action compared with DEET [2] | repellent/deterrent action [2] | duration of repellent/deterrent action compared with DEET [3] | repellent/deterrent action [3]
1 | COc1cc2nc(C)sc2cc1OC [5,6-dimethoxy-2-methylbenzothiazole] | lasts considerably longer than that of DEET | almost complete repellent/deterrent action | lasts considerably longer than that of DEET | almost complete repellent/deterrent action | lasts considerably longer than that of DEET | almost complete repellent/deterrent action
2 | Cc1nc2cc(N)ccc2s1 [5-amino-2-methylbenzothiazole] | lasts considerably longer than that of DEET | almost complete repellent/deterrent action | lasts considerably longer than that of DEET | almost complete repellent/deterrent action | lasts considerably longer than that of DEET | almost complete repellent/deterrent action
